The results in this text go back to patent US9661854B2, “Molecules having pesticidal utility, and intermediates, compositions, and processes, related thereto” (Dow AgroSciences LLC, priority 2015, dated 2017).

SMILES strings stand for the structures.

In test [1] the test system is Cabbage Looper (Trichoplusia ni, TRIPNI). As to the kind of experiment: Bioassay on Cabbage Looper (CL), 128-well diet tray assay. The test is classed as in vivo. To be noted: 168 h, 50 μg/cm^2 on artificial diet, second instar larvae, 25° C., five to seven days, average of eight wells, read-out: CL % Control (or Mortality) rating. As for the experimental part:
(§1) Example A: Bioassays on Beet Armyworm (Spodoptera exigua, LAPHEG) (“BAW”) and Cabbage Looper (Trichoplusia ni, TRIPNI) (“CL”)
(§2) Certain molecules disclosed in this document were tested against BAW and CL using procedures described in the following examples. In the reporting of the results, the “BAW & CL Rating Table” was used (See Table Section).
Bioassays on CL were conducted using a 128-well diet tray assay. One to five second instar CL larvae were placed in each well (3 mL) of the diet tray that had been previously filled with 1 mL of artificial diet to which 50 μg/cm^2 of the test molecule (dissolved in 50 μL of 90:10 acetone-water mixture) had been applied (to each of eight wells) and then allowed to dry. Trays were covered with a clear self-adhesive cover, vented to allow gas exchange, and held at 25° C., 14:10 light-dark for five to seven days. Percent mortality was recorded for the larvae in each well; activity in the eight wells was then averaged. The results are indicated in the table entitled “Table ABC: Biological Results” (See Table Section).

Test [2] has as its system Beet Armyworm (Spodoptera exigua, LAPHEG). The experiment in a line: Bioassay on Beet Armyworm (BAW), 128-well diet tray assay. The test is classed as in vivo. The following applies: 168 h, 50 μg/cm^2 on artificial diet, second instar larvae, 25° C., five to seven days, average of eight wells, read-out: BAW % Control (or Mortality) rating. As for the experimental part:
as §1, §2
Bioassays on BAW were conducted using a 128-well diet tray assay. One to five second instar BAW larvae were placed in each well (3 mL) of the diet tray that had been previously filled with 1 mL of artificial diet to which 50 μg/cm^2 of the test molecule (dissolved in 50 μL of 90:10 acetone-water mixture) had been applied (to each of eight wells) and then allowed to dry. Trays were covered with a clear self-adhesive cover, vented to allow gas exchange, and held at 25° C., 14:10 light-dark for five to seven days. Percent mortality was recorded for the larvae in each well; activity in the eight wells was then averaged. The results are indicated in the table entitled “Table ABC: Biological Results” (See Table Section).

One may read the mortality as the percentage killed. Consider `Cc1ccc(C(C)C)c(N2C(=O)CS/C2=N\C(=O)Nc2ccc(CCc3ncn(-c4ccc(OC(F)(F)F)cc4)n3)cc2)c1` [F1, (Z)-1-(3-(2-isopropyl-5-methylphenyl)-4-oxothiazolidin-2-ylidene)-3-(4-(2-(1-(4-(trifluoromethoxy)phenyl)-1H-1,2,4-triazol-3-yl)ethyl)phenyl)urea], for which the mortality at 50 µg/cm2 in test [1] and in test [2] was 50 to 100% throughout.
As to `Cc1ccc(C(C)C)c(N2C(=O)CS/C2=N\C(=O)Nc2ccc(CCc3ncn(-c4ccc(OC(F)(F)F)cc4)n3)c(C)c2)c1` [F2, (Z)-1-(3-(2-Isopropyl-5-methylphenyl)-4-oxothiazolidin-2-ylidene)-3-(3-methyl-4-(2-(1-(4-(trifluoromethoxy)phenyl)-1H-1,2,4-triazol-3-yl)ethyl)phenyl)urea], the mortality at 50 µg/cm2 in test [1] and in test [2] was 50 to 100% throughout.
As to `Cc1ccc(F)c(N2C(=O)CS/C2=N\C(=O)Nc2ccc(CCc3ncn(-c4ccc(OC(F)(F)F)cc4)n3)cc2)c1` [F3, (Z)-1-(3-(2-Fluoro-5-methylphenyl)-4-oxothiazolidin-2-ylidene)-3-(4-(2-(1-(4-(trifluoromethoxy)phenyl)-1H-1,2,4-triazol-3-yl)ethyl)phenyl)urea], the mortality at 50 µg/cm2 in test [1] and in test [2] was 50 to 100% each time.
Take `Cc1ccc(C(F)(F)F)c(N2C(=O)CS/C2=N\C(=O)Nc2ccc(CCc3ncn(-c4ccc(OC(F)(F)F)cc4)n3)cc2)c1` [F5, (Z)-1-(3-(5-Methyl-2-(trifluoromethyl)phenyl)-4-oxothiazolidin-2-ylidene)-3-(4-(2-(1-(4-(trifluoromethoxy)phenyl)-1H-1,2,4-triazol-3-yl)ethyl)phenyl)urea]: the mortality at 50 µg/cm2 in test [1] and in test [2] was 50 to 100% throughout.
On to `Cc1ccc(Cl)c(N2C(=O)CS/C2=N\C(=O)Nc2ccc(CCc3ncn(-c4ccc(OC(F)(F)F)cc4)n3)cc2)c1` [F6, (Z)-1-(3-(2-Chloro-5-methylphenyl)-4-oxothiazolidin-2-ylidene)-3-(4-(2-(1-(4-(trifluoromethoxy)phenyl)-1H-1,2,4-triazol-3-yl)ethyl)phenyl)urea], for which the mortality at 50 µg/cm2 in test [1] and in test [2] was 50 to 100% in each case.
In the case of `CCCc1ccc(C)cc1N1C(=O)CS/C1=N\C(=O)Nc1ccc(CCc2ncn(-c3ccc(OC(F)(F)F)cc3)n2)cc1` [F7, (Z)-1-(3-(5-Methyl-2-propylphenyl)-4-oxothiazolidin-2-ylidene)-3-(4-(2-(1-(4-(trifluoromethoxy)phenyl)-1H-1,2,4-triazol-3-yl)ethyl)phenyl)urea], the mortality at 50 µg/cm2 in test [1] and in test [2] was 50 to 100% each time.
As to `CCOc1ccc(C)cc1N1C(=O)CS/C1=N\C(=O)Nc1ccc(CCc2ncn(-c3ccc(OC(F)(F)F)cc3)n2)cc1` [F8, (Z)-1-(3-(2-Ethoxy-5-methylphenyl)-4-oxothiazolidin-2-ylidene)-3-(4-(2-(1-(4-(trifluoromethoxy)phenyl)-1H-1,2,4-triazol-3-yl)ethyl)phenyl)urea], the mortality at 50 µg/cm2 in test [1] and in test [2] was 50 to 100% throughout.
Take `Cc1cc(N2C(=O)CS/C2=N\C(=O)Nc2ccc(CCc3ncn(-c4ccc(OC(F)(F)F)cc4)n3)cc2)c(C(C)C)cc1F` [F9, (Z)-1-(3-(4-Fluoro-2-isopropyl-5-methylphenyl)-4-oxothiazolidin-2-ylidene)-3-(4-(2-(1-(4-(trifluoromethoxy)phenyl)-1H-1,2,4-triazol-3-yl)ethyl)phenyl)urea]: the mortality at 50 µg/cm2 in test [1] and in test [2] was 50 to 100% each time.
For `CCC(C)Oc1ccc(C)cc1N1C(=O)CS/C1=N\C(=O)Nc1ccc(CCc2ncn(-c3ccc(OC(F)(F)F)cc3)n2)cc1` (centres unmarked) [F10, (Z)-1-(3-(2-(sec-Butoxy)-5-methylphenyl)-4-oxothiazolidin-2-ylidene)-3-(4-(2-(1-(4-(trifluoromethoxy)phenyl)-1H-1,2,4-triazol-3-yl)ethyl)phenyl)urea], the mortality at 50 µg/cm2 in test [1] and in test [2] was 50 to 100% in each case.
Consider `Cc1ccc(OC(C)C)c(N2C(=O)CS/C2=N\C(=O)Nc2ccc(CCc3ncn(-c4ccc(OC(F)(F)F)cc4)n3)cc2)c1` [F11, (Z)-1-(3-(2-Isopropoxy-5-methylphenyl)-4-oxothiazolidin-2-ylidene)-3-(4-(2-(1-(4-(trifluoromethoxy)phenyl)-1H-1,2,4-triazol-3-yl)ethyl)phenyl)urea], for which the mortality at 50 µg/cm2 in test [1] and in test [2] was 50 to 100% throughout.
Turning to `Cc1ccc(OC(F)(F)F)c(N2C(=O)CS/C2=N\C(=O)Nc2ccc(CCc3ncn(-c4ccc(OC(F)(F)F)cc4)n3)cc2)c1` [F12, (Z)-1-(3-(5-Methyl-2-(trifluoromethoxy)phenyl)-4-oxothiazolidin-2-ylidene)-3-(4-(2-(1-(4-(trifluoromethoxy)phenyl)-1H-1,2,4-triazol-3-yl)ethyl)phenyl)urea], the mortality at 50 µg/cm2 in test [1] and in test [2] was 50 to 100% each time.
Consider `Cc1ccc(OCC(F)(F)F)c(N2C(=O)CS/C2=N\C(=O)Nc2ccc(CCc3ncn(-c4ccc(OC(F)(F)F)cc4)n3)cc2)c1` [F13, (Z)-1-(3-(5-Methyl-2-(2,2,2-trifluoroethoxy)phenyl)-4-oxothiazolidin-2-ylidene)-3-(4-(2-(1-(4-(trifluoromethoxy)phenyl)-1H-1,2,4-triazol-3-yl)ethyl)phenyl)urea], for which the mortality at 50 µg/cm2 in test [1] and in test [2] was 50 to 100% in each case.
On to `COC(=O)c1cc(CCc2ncn(-c3ccc(OC(F)(F)F)cc3)n2)ccc1NC(=O)/N=C1\SCC(=O)N1c1cc(C)ccc1C(C)C` [F16, Methyl (Z)-2-(3-(3-(2-isopropyl-5-methylphenyl)-4-oxothiazolidin-2-ylidene)ureido)-5-(2-(1-(4-(trifluoromethoxy)phenyl)-1H-1,2,4-triazol-3-yl)ethyl)benzoate], for which the mortality at 50 µg/cm2 in test [1] and in test [2] was 50 to 100% each time.
As for `Cc1ccc(C(C)C)c(N2C(=O)CS/C2=N\C(=O)Nc2ccc(CCc3ncn(-c4ccc(OC(F)(F)F)cc4)n3)cc2F)c1` [F17, (Z)-1-(2-Fluoro-4-(2-(1-(4-(trifluoromethoxy)phenyl)-1H-1,2,4-triazol-3-yl)ethyl)phenyl)-3-(3-(2-isopropyl-5-methylphenyl)-4-oxothiazolidin-2-ylidene)urea], the mortality at 50 µg/cm2 in test [1] and in test [2] was 50 to 100% throughout.
As for `Cc1ccc(C(C)C)c(N2C(=O)CS/C2=N\C(=O)Nc2ccc(CCc3ncn(-c4ccc(OC(F)(F)F)cc4)n3)cc2Cl)c1` [F18, (Z)-1-(2-Chloro-4-(2-(1-(4-(trifluoromethoxy)phenyl)-1H-1,2,4-triazol-3-yl)ethyl)phenyl)-3-(3-(2-isopropyl-5-methylphenyl)-4-oxothiazolidin-2-ylidene)urea], the mortality at 50 µg/cm2 in test [1] and in test [2] was 50 to 100% each time.
Take `Cc1ccc(C(C)C)c(N2C(=O)CS/C2=N\C(=O)Nc2c(F)cc(CCc3ncn(-c4ccc(OC(F)(F)F)cc4)n3)cc2F)c1` [F19, (Z)-1-(2,6-Difluoro-4-(2-(1-(4-(trifluoromethoxy)phenyl)-1H-1,2,4-triazol-3-yl)ethyl)phenyl)-3-(3-(2-isopropyl-5-methylphenyl)-4-oxothiazolidin-2-ylidene)urea]: the mortality at 50 µg/cm2 in test [1] and in test [2] was 50 to 100% each time.
Regarding `COc1cc(CCc2ncn(-c3ccc(OC(F)(F)F)cc3)n2)ccc1NC(=O)/N=C1\SCC(=O)N1c1cc(C)ccc1C(C)C` [F20, (Z)-1-(3-(2-Isopropyl-5-methylphenyl)-4-oxothiazolidin-2-ylidene)-3-(2-methoxy-4-(2-(1-(4-(trifluoromethoxy)phenyl)-1H-1,2,4-triazol-3-yl)ethyl)phenyl)urea], the mortality at 50 µg/cm2 in test [1] and in test [2] was 50 to 100% throughout.
For `COCc1ccc(C)cc1N1C(=O)CS/C1=N\C(=O)Nc1ccc(CCc2ncn(-c3ccc(OC(F)(F)F)cc3)n2)cc1` [F21, (Z)-1-(3-(2-(Methoxymethyl)-5-methylphenyl)-4-oxothiazolidin-2-ylidene)-3-(4-(2-(1-(4-(trifluoromethoxy)phenyl)-1H-1,2,4-triazol-3-yl)ethyl)phenyl)urea], the mortality at 50 µg/cm2 in test [1] and in test [2] was 50 to 100% each time.
In the case of `COCc1ccc(C)cc1N1C(=O)CS/C1=N\C(=O)Nc1ccc(CCc2ncn(-c3ccc(OC(F)(F)F)cc3)n2)cc1F` [F22, (Z)-1-(2-Fluoro-4-(2-(1-(4-(trifluoromethoxy)phenyl)-1H-1,2,4-triazol-3-yl)ethyl)phenyl)-3-(3-(2-(methoxymethyl)-5-methylphenyl)-4-oxothiazolidin-2-ylidene)urea], the mortality at 50 µg/cm2 in test [1] and in test [2] was 50 to 100% each time.
